In patent US20050124021A1 (priority 2000, published 2005):
“Also recorded” adds a separate entry of the source.

How the values were obtained:
[1] = target: recombinant MshB (Rv1170) (Mycobacterium tuberculosis, UniProt P9WJN3); type: biochemical, M. tuberculosis
[2] = test system: M. smegmatis strain TN3
[3] = test system: M. smegmatis strain 49
[4] = test system: M. smegmatis strain I64
[5] = test system: M. smegmatis mc^2155; settings: read-out: H2O2 IC50
[6] = test system: M. smegmatis strain 49::H37Rv A18; settings: read-out: H2O2 IC50; cited from earlier work
[7] = test system: M. smegmatis strain 49; settings: read-out: H2O2 IC50; cited from earlier work
[8] = target: T1, His-tagged MshB (Mycobacterium tuberculosis, UniProt P9WJN3); type: biochemical, M. tuberculosis
[9] = target: T2, M. tuberculosis MshB (Rv1170) (Mycobacterium tuberculosis, UniProt P9WJN3); type: biochemical; settings: for Deacetylase Specific Activity: pH 7.4
[10] = target: T2, M. tuberculosis MshB (Rv1170); type: biochemical
[11] = target: T1, His-tagged MshB; type: biochemical, M. tuberculosis; remark: listed apart in the source
[12] = test system: M. smegmatis mutant 49; type: cell-based
[13] = test system: M. smegmatis mutant TN3; type: cell-based
[14] = test system: M. smegmatis mc^2155; type: cell-based
[15] = test system: M. smegmatis chemical mutant 164; type: cell-based

T1 sequence (P9WJN3 whole entry, looked up): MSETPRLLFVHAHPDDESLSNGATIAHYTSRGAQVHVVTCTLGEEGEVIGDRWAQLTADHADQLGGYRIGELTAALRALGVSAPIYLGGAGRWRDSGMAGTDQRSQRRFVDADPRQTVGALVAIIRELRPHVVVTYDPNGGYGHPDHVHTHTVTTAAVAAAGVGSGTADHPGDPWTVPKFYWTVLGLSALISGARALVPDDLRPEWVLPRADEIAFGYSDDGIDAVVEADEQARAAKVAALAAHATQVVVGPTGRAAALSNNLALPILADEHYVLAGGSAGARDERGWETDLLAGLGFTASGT
T2 sequence (P9WJN3 whole entry, looked up): as above
Chain of recombinant MshB (Rv1170) (P9WJN3 whole entry, looked up): as above

c1cnc2c(c1)ccc1cccnc12 [1,10-phenanthroline]
Inhibition of the deacetylase reaction [1]: substantially inhibited; also recorded: completely inhibited

OO [H2O2, hydrogen peroxide]
Fold more sensitive to H2O2 than the parent strain [2]: > 20 fold | IC50 ([2]; read-out: H2O2 IC50): 500 µM | Fold more sensitive to H2O2 than the parent strain [3]: 12 fold | Sensitivity to peroxide versus the parent strain [4]: three-fold more sensitive | IC50 ([4]; read-out: H2O2 IC50): 3500 µM | IC50 [5]: 12000 µM | IC50 [6]: 1800 µM | IC50 [7]: 1000 µM

CC(=O)N[C@@H](CS)C(=O)N[C@H]1[C@@H](OC2[C@H](O)[C@H](O)C(O)[C@H](O)[C@H]2O)O[C@H](CO)[C@@H](O)[C@@H]1O (stereo partly drawn) [MSH, 1-D-myo-inosityl-2-(N-acetylcysteinyl)amido-2-deoxy-α-D-glucopyranoside]
Concentration that completely inhibits the amidase activity [8]: over 1 mM | Inhibition of the amidase activity [8]: effective inhibitor | Relative Rate (deacetylase reaction) [9]: <0.00036 | Substrate quality for the deacetylase activity [9]: not substrates | Deacetylase Specific Activity [9]: <0.025 ± 0.012 nmol/min/mg | Relative Rate (amidase reaction) [10]: 0.0043 | Amidase Specific Activity ([10]; pH 7.4): 0.3 ± 0.1 nmol/min/mg | Inhibition of the deacetylase activity [11]: effective inhibitor

N[C@H]1C(O)O[C@H](CO)[C@@H](O)[C@@H]1O (stereo partly shown) [glucosamine]
MSH found in cells [12]: No significant MSH

O[C@H]1[C@H](O)[C@@H](O)[C@H](O)[C@@H](O)[C@H]1O [inositol]
MSH found in cells [12]: No significant MSH

superoxide
Killed by superoxide [13]: > 90% | Killing by superoxide [14]: no significant killing | Killing by superoxide [15]: intermediate level of killing

N[C@@H](CCC(=O)N[C@@H](CS)C(=O)NCC(=O)O)C(=O)O [glutathione]
Inhibition of the amidase activity [8]: lack of inhibition | Inhibition of the deacetylase activity [11]: lack of inhibition

CC(=O)N[C@H]1C(O)O[C@H](CO)[C@@H](O)[C@@H]1O (stereo partly shown) [GlcNAc, N-acetylglucosamine]
Fold less active than GlcNAc-Ins as deacetylase substrate [9]: 44 fold | Relative Rate (deacetylase reaction) [9]: 0.023 | Deacetylase Specific Activity [9]: 1.6 ± 1 nmol/min/mg | MSH found in cells [12]: No significant MSH
